Results taken from ChEMBL document CHEMBL5576077, “A small-molecule degron with a phenylpropionic acid scaffold” (Bioorg Med Chem, 2024).
Active and inactive are the calls of the source. The rule behind the calls is not given here.

Assays:
[1] = molecular target: T1, S-phase kinase-associated protein 2/Haloalkane dehalogenase (Homo sapiens) (UniProt Q13309+P0A3G3); assay: PROTAC activity at Skp2 in HEK293 cells/HaloTag7-ELuc fusion protein (unknown origin) stably expressed in HEK293 cells assessed as protein degradation at 1 to 10 uM incubated for 24 hrs by Western blot analysis; type: cell-based; settings: dose 1-10 µM
[2] = molecular target: T2, S-phase kinase-associated protein 2/Bifunctional ligase/repressor BirA (Homo sapiens) (UniProt P06709+Q13309); assay: PROTAC activity at Skp2 in HeLa cells/N-terminal HaloTag7-fused TurboID (unknown origin) stably expressed in HeLa cells assessed as protein degradation at 30 uM incubated for 8 hrs by Western blot analysis; type: cell-based
[3] = molecular target: T1, S-phase kinase-associated protein 2/Haloalkane dehalogenase (Homo sapiens); assay: PROTAC activity at Skp2 in HEK293 cells/HaloTag7 fusion protein (unknown origin) stably expressed in HEK293 cells assessed as protein degradation by measuring test to control ratio at 0.3 uM incubated for 24 hrs by Western blot analysis; type: cell-based
[4] = molecular target: T1, S-phase kinase-associated protein 2/Haloalkane dehalogenase (Homo sapiens); assay: PROTAC activity at Skp2 in HEK293 cells/HaloTag7 fusion protein (unknown origin) stably expressed in HEK293 cells assessed as protein degradation by measuring test to control ratio at 1 uM incubated for 24 hrs by Western blot analysis; type: cell-based
[5] = molecular target: T1, S-phase kinase-associated protein 2/Haloalkane dehalogenase (Homo sapiens); assay: PROTAC activity at Skp2 in HEK293 cells/HaloTag7 fusion protein (unknown origin) stably expressed in HEK293 cells assessed as protein degradation by measuring test to control ratio at 3 uM incubated for 24 hrs by Western blot analysis; type: cell-based
[6] = molecular target: T2, S-phase kinase-associated protein 2/Bifunctional ligase/repressor BirA (Homo sapiens); assay: PROTAC activity at Skp2 in HeLa cells/N-terminal HaloTag7-fused TurboID (unknown origin) stably expressed in HeLa cells assessed as protein degradation at 30 uM incubated for 3 hrs by Western blot analysis; type: cell-based
[7] = molecular target: T2, S-phase kinase-associated protein 2/Bifunctional ligase/repressor BirA (Homo sapiens); assay: PROTAC activity at Skp2 in HeLa cells/N-terminal HaloTag7-fused TurboID (unknown origin) stably expressed in HeLa cells assessed as protein degradation at 30 uM incubated for 3 to 8 hrs in presence of MG132 by Western blot analysis; type: cell-based; settings: time 3-8 hrs
[8] = molecular target: T2, S-phase kinase-associated protein 2/Bifunctional ligase/repressor BirA (Homo sapiens); assay: PROTAC activity at Skp2 in HeLa cells/N-terminal HaloTag7-fused TurboID (unknown origin) stably expressed in HeLa cells assessed as protein degradation at 30 uM incubated for 3 to 8 hrs in presence of Epoxomicin by Western blot analysis; type: cell-based; settings: time 3-8 hrs
[9] = molecular target: T2, S-phase kinase-associated protein 2/Bifunctional ligase/repressor BirA (Homo sapiens); assay: PROTAC activity at Skp2 in HeLa cells/N-terminal HaloTag7-fused TurboID (unknown origin) stably expressed in HeLa cells assessed as protein degradation at 30 uM incubated for 3 to 8 hrs in presence of BafA by Western blot analysis; type: cell-based; settings: time 3-8 hrs
[10] = molecular target: T2, S-phase kinase-associated protein 2/Bifunctional ligase/repressor BirA (Homo sapiens); assay: PROTAC activity at Skp2 in HeLa cells/N-terminal HaloTag7-fused TurboID (unknown origin) stably expressed in HeLa cells assessed as protein degradation at 30 uM incubated for 3 to 8 hrs in presence of NH4Cl by Western blot analysis; type: cell-based; settings: time 3-8 hrs
[11] = molecular target: T2, S-phase kinase-associated protein 2/Bifunctional ligase/repressor BirA (Homo sapiens); assay: PROTAC activity at Skp2 in HeLa cells/N-terminal HaloTag7-fused TurboID (unknown origin) stably expressed in HeLa cells assessed as protein degradation at 30 uM incubated for 8 hrs in presence of MLN4924 by Western blot analysis; type: cell-based
[12] = Thermal stabilization of GST-fused HaloTag fusion protein (unknown origin) at 100 uM by SYPRO Orange dye based TSA assay

O=C(O)CCc1ccc(OCCCOCCCOCCCCCCCl)cc1/C=C1\SC(=S)N(Cc2cccnc2)C1=O
Activity [1]: Active

O=C(O)COc1ccc(O)cc1/C=C1\SC(=S)N(Cc2cccnc2)C1=O
Activity [2]: inactive

O=C(O)CCc1ccc(OCCOCCOCCOCCOCCOCCCCCCCl)cc1/C=C1\SC(=S)N(Cc2cccnc2)C1=O
T/C [3]: 82
T/C [4]: 64
T/C [5]: 37

O=C(O)COc1ccc(OCCOCCOCCOCCOCCOCCCCCCCl)cc1/C=C1\SC(=S)N(Cc2cccnc2)C1=O
T/C [3]: 111
T/C [4]: 121
T/C [5]: 103

OCCOCCOCCOCCOCCCCCCCl
Activity [2]: inactive

O=C(O)CCc1ccc(OCCOCCOCCOCCOCCCCCCCl)cc1/C=C1\SC(=S)N(Cc2cccnc2)C1=O
T/C [5]: 25
Activity [6]: Active
Activity [7]: inactive
Activity [8]: inactive
Activity [9]: Active
Activity [10]: Active
Activity [11]: Active
Activity [12]: Active

O=C(O)CCc1ccc(OCCOCCOCCOCCCCCCCl)cc1/C=C1\SC(=S)N(Cc2cccnc2)C1=O
T/C [5]: 81
